From US12552796B2, “EED inhibitor, and preparation method therefor and use thereof” (SHANGHAITECH UNIVERSITY, priority 2019, dated 2026)
Like-named read-outs stand apart in the source and are kept apart here.

What was measured:
[1] = system: cellular H3K27 methylation; test: Cellular H3K27 methylation assay (Western blot of H3K27me3 in HeLa cells); assay type: cell-based; settings: Homo sapiens, 72 h, read-out: PD IC50
[2] = system: WSU-DLCL2 cells; test: Cell proliferation assay, WSU-DLCL2; assay type: cell-based; settings: Homo sapiens
Procedure: (§1) Human B-cell non-Hodgkin's lymphoma cells WSU-DLCL2, Karpas422 and Pfeiffer were cultured in cell culture flasks in a sterile incubator with 95% relative humidity and 5% CO2 at 37° C. The medium was RPMI-1640 (Gibco, product No. 31800022) containing 15% fetal bovine serum (FBS, Gibco, product No. 10099141) and 0.1% penicillin/streptomycin solution (P/S). In order to assay the effects of compounds on cell proliferation, cells in exponential growth phase were seeded into a 12-well plate (Nunc, product No. 150628) with 1 mL of medium per well, wherein WSU-DLCL2 and Karpas422 were seeded at a density of 1×10^5 cells/well, and Pfeiffer was seeded at a density of 2×10^5 cells/well. At the same time, different concentrations of compounds were added to the wells that had seeded with cells (6 concentrations were set for each compound at 3-fold serial dilution), and the final concentration of DMSO was 0.1%. After that, the number of viable cells was determined by Vi-CELL (Beckman Coulter) for WSU-DLCL2 and Pfeiffer every 3 days, and for Karpas422 on days 4, 7, and 11, respectively. The cells counted each time were seeded into a new 12-well plate at the same density, and supplemented with fresh medium to 1 mL. Different concentrations of compounds were added at the same time. WSU-DLCL2 and Pfeiffer were cultured to the 9th day, and Karpas422 was cultured to the 14th day. Cell data were collected uniformly, and analyzed with GraphPad prisim5. Dose curves were fitted, and IC50 values of the assay compounds were obtained.

[3] = system: Karpas422 cells; test: Cell proliferation assay, Karpas422; assay type: cell-based; settings: Homo sapiens
Procedure: as §1

[4] = Pharmacokinetic study in rats; assay type: in vivo, SD rats; settings: rat; for AUC(0-inf) / Cmax / Tmax / clearance / half-life / MRT inf: male, SD, plasma; for MRT inf: read-out: MRT0-∞
Procedure: Six SPF SD rats, male, weighing 180-220 g, were randomly divided into 2 groups with 3 rats in each group. The compounds of the present disclosure were administered by oral gavage (PO) and intravenous injection (IV), respectively, and the assay compounds were formulated with a vehicle (5% DMSO+10% Solutol+85% pH 4.65 Acetate buffer).
Dosage: 1 mg/kg for intravenous injection and 2 mg/kg for oral administration.
(§2) Dosing volume: 5 mL/kg for intravenous injection and 10 mL/kg for oral administration.
(§3) The oral administration group was fasted overnight (10-14 h) before the assay, and drank water freely. After 4 hours of administration, they were fed uniformly. They were weighed before administration, and the dosage was calculated according to the body weight.
Intravenous administration: 0.083, 0.25, 0.5, 1, 2, 4, 6, 8, 10 and 24 h after administration;
Oral gavage administration: 0.25, 0.5, 1, 2, 4, 6, 8, 10, 12 and 24 h after administration;
(§4) Blood was collected from the jugular vein of rats at the above set time points, about 0.2 mL each time. The blood was anticoagulated with heparin sodium, placed on ice after collection, and centrifuged within 1 hour to separate the plasma (centrifugation conditions: 6800 g, 6 minutes, 2-8° C.). Plasma samples were stored in a −80° C. freezer prior to analysis.
The concentration of each compound in rat plasma was determined by LC/MS/MS method.
(§5) Through the plasma drug concentration data at different time points, pharmacokinetic parameters were calculated using Phoenix WinNonlin 7.0, thereby providing parameters such as AUC0-t, AUC0-∞, MRT0-∞, Cmax, Tmax, and T1/2 and mean and standard deviation thereof.

[5] = system: Pfeiffer cells; test: Cell proliferation assay, Pfeiffer; assay type: cell-based; settings: Homo sapiens, cultured to the 9th day, read-out: Anti-proliferation IC50
Procedure: as §1

[6] = Pharmacokinetic study in canine; assay type: in vivo, Beagle dogs; settings: Beagle dog; for MRT inf: read-out: MRT0-∞
Procedure: Six ordinary Beagle dogs, male, weighing 10-12 kg, were randomly divided into 2 groups with 3 dogs in each group. The compounds of the present disclosure were administered by oral gavage (PO) and intravenous injection (IV), respectively, and the assay compounds were formulated with the corresponding vehicles.
Dosage: 1 mg/kg for intravenous injection and 5 mg/kg for oral administration.
as §2
as §3, with “weight. 2. Blood collection time point and sample processing:” for “weight.”
Intravenous administration: 0.083, 0.25, 0.5, 1, 2, 4, 8, 12 and 24 h after administration;
Oral gavage administration: 0.25, 0.5, 1, 2, 4, 6, 8, 12 and 24 h after administration;
as §4, with “veins” for “jugular vein”, “extremities,” for “rats at the above set time points,”, “0.5-1” for “0.2”
The concentration of each compound in canine plasma was determined by LC/MS/MS method.
as §5

[7] = system: Karpas 422 human B-cell lymphoma cells; test: Mouse Karpas422 CDX model, tumor growth; assay type: in vivo, balb/c nude mice; settings: Karpas422 CDX mice; for tumor growth inhibition (TGI %), Day 11 after administration / tumor growth inhibition (TGI %), Day 21 after administration: intragastric
Procedure: Female balb/c nude mice aged 6-8 weeks were selected and housed under SPF conditions (i.e., 20-22° C.; 40-70% relative humidity) in individual ventilated cages at constant temperature and humidity. There were 5 or fewer animals in each cage. Animals had access to dry pelleted food sterilized by irradiation and sterile drinking water. Karpas 422 human B-cell lymphoma cells were cultured in RPMI-1640 (Gibco, product No. 31800022) containing 15% fetal bovine serum (FBS, Gibco, product No. 10099141) and 0.1% penicillin/streptomycin solution (P/S). The cells were cultured in a sterile incubator at a temperature of 37° C., a relative humidity of 95%, and 5% CO2. Karpas 422 cells cultured in vitro were maintained at a concentration between 0.5-2×10^6 cells/mL cells in suspension culture and passaged at a 1:3 dilution every 2-4 days. To establish the xenograft model, cells were collected, resuspended in PBS, mixed 1:1 by volume with Matrigel (BD) at a concentration of 5×10^7 cells/mL, and then injected subcutaneously into the right side of balb/c nude mice (Vital River) with 5×10^6 cells per animal. When tumors grew to about 150 mm^3, mice were divided into groups with 6 mice in each group. The mice were administered intragastrically, and the tumor size and mouse body weight were measured twice a week. The two largest diameters of the transplanted tumor, width (W) and length (L), were manually measured with a vernier caliper, and the tumor volume was estimated using the formula: 0.5×L×W^2. After the assay, the mice were euthanized.
The assay compounds were prepared as a suspension in pure water containing 0.5% HPMC+0.5% Tween 80 as a solvent. The dosing volume was 10 mL/kg.
In this study, changes in mouse tumor volume and relative changes in mouse body weight were assayed, and the results were shown in FIGS. 1 and 2.

[8] = HeLa cells, 3 days, H3K27me3 level by Western blot
[9] = WSUDLCL2, WSU-DLCL2 cells, cultured to the 9th day, read-out: Anti-proliferation IC50
[10] = KARPAS-422, Karpas422 cells, cultured to the 14th day, read-out: Anti-proliferation IC50

SMILES: O=C1CCCN1c1cnc(NCc2c(F)ccc3c2CCO3)n2cnnc12 [HJM-067]
- IC50 ([1]; HeLa): 21.1 nM
- IC50 ([2]; WSUDLCL2, read-out: Anti-proliferation IC50): 29.4 nM
- IC50 ([3]; KARPAS-422, read-out: Anti-proliferation IC50): 51 nM
- AUC(0-inf) ([4]; IV, 1 mg/kg): 695 ng·h/mL
- Cmax ([4]; IV, 1 mg/kg): 946 ng/mL
- Tmax ([4]; IV, 1 mg/kg): 0.08 h
- clearance ([4]; IV, 1 mg/kg): 24.1 mL/min/kg
- half-life ([4]; IV, 1 mg/kg): 3 h
- MRT inf ([4]; IV, 1 mg/kg): 0.8 h
- AUC(0-inf) ([4]; PO, 2 mg/kg): 846 ng·h/mL
- Cmax ([4]; PO, 2 mg/kg): 306 ng/mL
- Tmax ([4]; PO, 2 mg/kg): 0.83 h
- half-life ([4]; PO, 2 mg/kg): 3.03 h
- MRT inf ([4]; PO, 2 mg/kg): 2.7 h
- F ([4]; PO, 2 mg/kg): 60.72%

SMILES: Fc1ccc2c(c1CNc1ncc(OCC3CCOC3)c3nncn13)CCO2 (stereo not shown) [HJM-102]
- IC50 [1, 8]: 32.7 nM
- IC50 [2, 9]: 25.1 nM
- IC50 [3, 10]: 99.3 nM
- IC50 [5]: 47.4 nM
- AUC(0-inf) ([4]; IV, 1 mg/kg): 1140 ng·h/mL
- Cmax ([4]; IV, 1 mg/kg): 1180 ng/mL
- Tmax ([4]; IV, 1 mg/kg): 0.08 h
- clearance ([4]; IV, 1 mg/kg): 14.8 mL/min/kg
- half-life ([4]; IV, 1 mg/kg): 1.98 h
- MRT inf ([4]; IV, 1 mg/kg): 1.4 h
- AUC(0-inf) ([4]; PO, 2 mg/kg): 1890 ng·h/mL
- Cmax ([4]; PO, 2 mg/kg): 369 ng/mL
- Tmax ([4]; PO, 2 mg/kg): 1.5 h
- half-life ([4]; PO, 2 mg/kg): 1.68 h
- MRT inf ([4]; PO, 2 mg/kg): 3.55 h
- F ([4]; PO, 2 mg/kg): 82.62%

SMILES: Fc1ccc2c(c1CNc1ncc(OCC3COC3)c3nncn13)CCO2 [HJM-104]
- IC50 [1, 8]: 52.7 nM
- IC50 [2, 9]: 29.6 nM
- IC50 [3, 10]: 102 nM
- IC50 [5]: 81.6 nM
- AUC(0-inf) ([4]; IV, 1 mg/kg): 1980 ng·h/mL
- Cmax ([4]; IV, 1 mg/kg): 1360 ng/mL
- Tmax ([4]; IV, 1 mg/kg): 0.08 h
- clearance ([4]; IV, 1 mg/kg): 8.47 mL/min/kg
- half-life ([4]; IV, 1 mg/kg): 2.7 h
- MRT inf ([4]; IV, 1 mg/kg): 2.37 h
- AUC(0-inf) ([4]; PO, 2 mg/kg): 3470 ng·h/mL
- Cmax ([4]; PO, 2 mg/kg): 586 ng/mL
- Tmax ([4]; PO, 2 mg/kg): 3.33 h
- half-life ([4]; PO, 2 mg/kg): 2.21 h
- MRT inf ([4]; PO, 2 mg/kg): 4.43 h
- F ([4]; PO, 2 mg/kg): 89.41%
- F ([6]; PO, 5 mg/kg): 102.43%
- AUC(0-inf) ([6]; male, plasma, IV, 1 mg/kg): 3230 ng·h/mL
- Cmax ([6]; male, plasma, IV, 1 mg/kg): 864 ng/mL
- Tmax ([6]; male, plasma, IV, 1 mg/kg): 0.08 h
- clearance ([6]; male, plasma, IV, 1 mg/kg): 5.9 mL/min/kg
- half-life ([6]; male, plasma, IV, 1 mg/kg): 1.67 h
- MRT inf ([6]; male, plasma, IV, 1 mg/kg): 2.86 h
- AUC(0-inf) ([6]; male, plasma, PO, 5 mg/kg): 16500 ng·h/mL
- Cmax ([6]; male, plasma, PO, 5 mg/kg): 3380 ng/mL
- Tmax ([6]; male, plasma, PO, 5 mg/kg): 1 h
- half-life ([6]; male, plasma, PO, 5 mg/kg): 2.09 h
- MRT inf ([6]; male, plasma, PO, 5 mg/kg): 3.53 h
- tumor growth inhibition (TGI %), Day 11 after administration ([7]; 30 mg/kg): 39.4%
- tumor growth inhibition (TGI %), Day 21 after administration ([7]; 30 mg/kg): 93.29%
- tumor growth inhibition (TGI %), Day 11 after administration ([7]; 100 mg/kg): 88.9%
- tumor growth inhibition (TGI %), Day 21 after administration ([7]; 100 mg/kg): 111.9%
- effect on tumor growth (FIG. 1) ([7]; different dosages): complete tumor disappearance
